Data taken from PubChem BioAssay (NCI).
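A five-concentration, 48-hour dose response in 96-well plates underlies each endpoint, interpolated linearly between surrounding concentrations. The concentration for 50% growth inhibition is given as GI50. TGI: concentration producing complete growth inhibition.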

Columns and labels:
Assay in all cases: DTP human tumour cell line panel, 48 h
DU-145 prostate = system: DU-145 prostate
UACC-62 melanoma = system: UACC-62 melanoma
HL-60(TB) leukemia = system: HL-60(TB) leukemia
CCRF-CEM leukemia = system: CCRF-CEM leukemia
SF-539 CNS = system: SF-539 CNS
LOX IMVI melanoma = system: LOX IMVI melanoma
MDA-MB-231 breast = system: MDA-MB-231 breast
MOLT-4 leukemia = system: MOLT-4 leukemia
MCF7 breast = system: MCF7 breast
UACC-257 melanoma = system: UACC-257 melanoma
SN12C renal = system: SN12C renal
OVCAR-5 ovarian = system: OVCAR-5 ovarian
NCI-H226 lung = system: NCI-H226 lung
HS 578T breast = system: HS 578T breast
MALME-3M melanoma = system: MALME-3M melanoma

| SMILES | TGI (DU-145 prostate) [µM] | TGI (UACC-62 melanoma) [µM] | TGI (HL-60(TB) leukemia) [µM] | TGI (CCRF-CEM leukemia) [µM] | TGI (SF-539 CNS) [µM] | TGI (LOX IMVI melanoma) [µM] | TGI (MDA-MB-231 breast) [µM] | TGI (MOLT-4 leukemia) [µM] | TGI (MCF7 breast) [µM] | TGI (UACC-257 melanoma) [µM] | TGI (SN12C renal) [µM] | TGI (OVCAR-5 ovarian) [µM] | TGI (NCI-H226 lung) [µM] | TGI (HS 578T breast) [µM] | TGI (MALME-3M melanoma) [µM] | GI50 (DU-145 prostate) [µM] | GI50 (UACC-62 melanoma) [µM] | GI50 (CCRF-CEM leukemia) [µM] | GI50 (SF-539 CNS) [µM] | GI50 (SN12C renal) [µM] |
| --- | --- | --- | --- | --- | --- | --- | --- | --- | --- | --- | --- | --- | --- | --- | --- | --- | --- | --- | --- | --- |
| SC[C@@H]1COC[C@H](CS)S1 | > 100 | > 100 | > 100 | > 100 | > 100 | > 100 | > 100 | > 100 | > 100 | > 100 | > 100 | > 100 |  |  |  |  |  |  |  |  |
| COc1cc2c(c(N)c1OC)C(=O)/C(=C/c1cc(C)c(O)c(C)c1)C2 | 16.9 | > 100 |  | 11.7 |  | > 100 | > 100 | > 100 | > 100 | > 100 | > 100 | > 100 | > 100 |  |  |  |  |  |  |  |
| Cc1nc2c(O)cccc2c(=O)[nH]1 |  | > 1000 | 471 | > 1000 | > 1000 | > 1000 |  | > 1000 | > 1000 | > 1000 | > 1000 | > 1000 | > 1000 | > 1000 | > 1000 |  |  |  |  |  |
| CCN(CC)CCCC(C)NC(=O)c1cc(-c2nccn2C)nc2ccc(C)cc12 (stereo not drawn) | > 100 | > 100 | > 100 |  | > 100 | > 100 | > 100 |  | > 100 | > 100 |  | > 100 | > 100 |  | > 100 |  |  |  |  |  |
| CCCCCCNC(=O)c1cc(C#Cc2cc(OC)ccc2OC)ccc1OC | > 100 | > 100 |  | > 100 | > 100 | > 100 | > 100 | > 100 | > 100 | > 100 | > 100 | > 100 |  | > 100 |  | > 100 | 56.8 | 7.9 | > 100 | > 100 |
| CC1=Nc2nc3ccccc3n2C(C)(C)C1 |  | > 100 |  | > 100 | > 100 | > 100 | > 100 | > 100 | > 100 | > 100 |  | > 100 | > 100 | > 100 | > 100 |  |  |  |  |  |
| Cn1c(N(CCO)CCO)cnc1[N+](=O)[O-] |  | > 100 | > 100 | > 100 | > 100 | > 100 | > 100 | > 100 | > 100 | > 100 |  | > 100 | > 100 | > 100 | > 100 |  |  |  |  |  |
| Nc1ncnc2c1ncn2[C@@H]1C[C@H]1CO |  |  | > 100 | > 100 | > 100 | > 100 | > 100 | > 100 | > 100 | > 100 | > 100 | > 100 | > 100 | > 100 | > 100 |  |  |  |  |  |
| C=C[C@@]1(C)CC2CC[C@]3(C)C(C)=CC(=O)CC3[C@]2(C)CC1O (stereo partly drawn) | > 100 | > 100 | 82 | > 100 | > 100 | > 100 |  | > 100 | > 100 | > 100 | > 100 | > 100 | > 100 | > 100 | > 100 |  |  |  |  |  |
| CC(C)=CCC/C(C)=C/CC/C(C)=C/CC/C=C(\C)CC/C=C(\C)CCC1SC1(C)C (stereo not drawn) |  | > 100 | > 100 | > 100 | > 100 | > 100 |  | > 100 |  | > 100 | > 100 | > 100 | > 100 |  | > 100 |  |  |  |  |  |
| CNc1nnnn1C1OC(CO)C(O)C1O (stereo not drawn) |  | > 100 |  | > 100 | > 100 | > 100 |  | > 100 |  | > 100 | > 100 | > 100 | > 100 |  | > 100 |  |  |  |  |  |
| Cc1ccc(-c2c(C#N)c(-c3ccc([N+](=O)[O-])cc3)c(C#N)c(=O)n2NS(=O)(=O)c2ccc(C)cc2)cc1 |  | > 100 | 84.3 | 73.2 | > 100 | > 100 | > 100 | 50.1 | > 100 | > 100 | > 100 | > 100 | > 100 | 95.8 | > 100 |  |  |  |  |  |
| COC(=O)C(/C(=N/N)C(=O)Nc1ccc(C)c(C)c1)c1nc2ccc(Cl)cc2[nH]c1=O (stereo not drawn) |  | > 100 | > 100 | > 100 | > 100 | > 100 | > 100 | > 100 | > 100 | > 100 | > 100 | > 100 | > 100 | > 100 | > 100 |  |  |  |  |  |
| Cc1ccccc1N=Cc1ccc(N(CCC#N)S(=O)(=O)c2ccccc2)cc1 |  | > 100 | > 100 | > 100 | > 100 | > 100 |  | > 100 |  | > 100 | > 100 | > 100 | > 100 |  | > 100 |  |  |  |  |  |
| O=C(O)Cn1nnc2c(=O)[nH][nH]c(=O)c21 | > 100 |  | > 100 | > 100 |  | > 100 | > 100 | > 10 | > 100 | > 100 | > 100 | > 100 |  |  | > 100 |  |  |  |  |  |
| CSC(=NC1CC(n2cc(C)c(=O)[nH]c2=O)OC1CO)NC#N (stereo not drawn) | > 100 | > 100 | > 100 | > 100 | > 100 | > 100 | > 100 | > 100 | > 100 | > 100 | > 100 | > 100 | > 100 |  | > 100 |  |  |  |  |  |
| C/C(O)=C(/C=N\C(=S)Nc1ccc(Cl)c(Cl)c1)C(=O)Nc1ccccc1C | 92 | 49.8 | 60.1 |  | > 100 | > 100 | > 100 | 54.9 | > 100 | > 100 | > 100 | > 100 | 88.7 |  |  |  |  |  |  |  |
